Assays:
BCL1 = assay: [3H]thymidine incorporation assay; assay type: cell-based, murine; settings: for [3H]cpm incorporation: seven days
Method: For each cell type, the cells were passaged uniformly for all drug doses given during the seven-day period. The cells were then pulsed for six hours with [^3 H]thymidine. The extent of DNA synthesis was then determined by counting the radioactivity incorporated into the cells.
(§1) For assays of cellular proliferation, cells were grown five days in the presence of the indicated concentrations of BMLOV, pulsed 6 hr with [^3 H]-thymidine (New England Nuclear, Boston, Mass.), and counted in a liquid scintillation counter. Human peripheral blood lymphocytes (PBL) from normal volunteers were isolated from lymphocyte separation medium (Litton Bionetics, Kensington, Md.) by density gradient centrifugation. Monocytes were depleted from PBL by two rounds of plastic absorption for 30 minutes at 37° C. B cells were enriched for by negative selection using complement plus monoclonal antibodies to CD2, CD3, CD4, and CD8 for complement depletion. Clonogenic assays of colony formation in methylcellulose medium were performed as previously described (F. M. Uckun et al. (1992), supra).

Jurkat T cells = assay: TUNEL analysis of fragmented DNA by flow cytometry; assay type: cell-based, human; settings: 25 or 50 μM BMLOV, 48 h
Method: (§2) TUNEL (TdT-mediated dUTP-biotin nick end labeling) staining for the in situ detection of fragmented DNA was as previously described (Y. Gavrieli et al., J. Cell Biol. 119:493-501 (1992)) with modification to permit detection by flow cytometry. Cells (2×106) were washed with PBS and resuspended in 4% formaldehyde in PBS at 4° C. for 4 h for fixation. Cells were rinsed in PBS and permeabilized by resuspension in 70% ethanol in PBS for 1 h at 4° C. Cells were rinsed with PBS, rinsed with TdT buffer (30 mM Tris-HCl, pH 7.2, 140 mM cacodylate, 1 mM cobalt chloride) and resuspended in 150 μl TdT buffer. Biotin-dUTP (SIGMA, St. Louis, Mo.) was added to 15 μM and terminal deoxynucleotidyl transferase (TdT, Boehringer Mannheim) was added to 0.6 U/μl. DNA synthesis was for 1 h at 37° C. and was stopped by the addition of 1 ml cold PBS. Cells were rinsed twice with PBS and resuspended in 500 μl of PBS containing 5 μg of fluorescein-avidin at 4° C. for 16 h. Cells were washed twice in PBS and resuspended in 400 μl of PBS for flow cytometry. Cells were analyzed using a Becton-Dickinson FACScan flow cytometer and LYSIS analysis software.
(§3) The extent of DNA fragmentation and the cell type selective activity was quantitated by TUNEL analysis (Y. Gavrieli et al., (1992), supra); FIG. 28). […]

Ramos B cells [1] = assay: TUNEL analysis of fragmented DNA by flow cytometry; assay type: cell-based, human; settings: 25 or 50 μM BMLOV, 48 h
Method: as §2, §3

CEM = assay: Anti-phosphotyrosine immunoblot; assay type: cell-based, human; settings: 16 hr
[2] = system: normal peripheral B cells; settings: human, 120 h, 25 µM
Method: Cell death was measured by staining cells with propidium iodine followed by flow cytometry (EPICS C, Coulter) as previously described (N. K. Damle et al. (1993), supra; Y. Liu & C. A. J. Janeway, "Interferon Gamma Plays a Critical Role in Induced Cell Death of Effector T Cells: A Possible Third Mechanism of Self-Tolerance," J. Exp. Med. 172:1735-1739 (1990)). Flow cytometric data on forward scatter and red fluorescence arising from propidium iodine binding to cellular DNA was collected for 5,000 cells and analyzed by the Quadstat Program (N. K. Damle, (1993), supra). The membranes of dead cells are permeable to propidium iodine (Y. Liu & C. A. Janeway, (1990), supra), but cells undergoing the process of apoptosis can shrink in size while temporarily maintaining plasma membrane integrity (J. J. Cohen et al., "Apoptosis and Programmed Cell Death and Immunity," Annu. Rev. Immunol. 10:267-293 (1992)). […] Only cells displaying normal size and resistance to staining by propidium iodide are considered viable cells and are found in the lower left quadrant (M. K. Damle et al. (1993), supra). The percentage of cells in each quadrant was calculated by the Quadstat program. […]
To provide a final measure of cell death, propidium iodide staining of cells was used. […] Viability was measured by staining with propidium iodide followed by flow cytometric analysis as described above. […]

Ramos B cells [3] = assay: Cell cycle analysis by propidium iodide flow cytometry; assay type: cell-based, human
Method: Ramos B cells treated with various concentrations of BMLOV for 16 hours were examined for their DNA content by propidium iodide staining followed by FACScan flow cytometric analysis using the SFIT program.
Cells were fixed, permeabilized and stained for their DNA content with propidium iodide as previously described (D. H. Pluznik et al., "Colony Stimulating Factor (CSF) Controls Proliferation of CSF-Dependent Cells by Acting During the G1 Phase of the Cell Cycle," Proc. Natl. Acad. Sci. USA 81:7451-7455 (1984)). The stained cells were analyzed by flow cytometry on a FACScan (Becton-Dickinson) instrument. The percentage of cells in various stages of the cell cycle was calculated using the CellFIT program.
In FIG. 14, Ramos cells growing in log phase were treated with BMLOV for 48 hr at the indicated concentrations. DNA in the cells was stained with propidium iodide and quantitated by flow cytometry as described previously. The calculated percentage of cells at the stages of the cell cycle is shown. "A" marks apoptotic cells lacking normal amounts of DNA in the 5 μM dose panel.

THP-1 = assay: Clonogenic assay in methylcellulose; assay type: cell-based, human; settings: for colonies formed: seven days
Method: (§4) The selective cytotoxicity of BMLOV was examined in clonogenic assays. Cells were grown in methylcellulose media and the number of colonies formed after seven days of treatment with various doses of the drug were determined. The clonogenic assays were performed with six replicates for each treatment as described [F. M. Uckun et al., J. Exp. Med. 163:347-368 (1986); F. M. Uckun & J. A. Ledbetter, Proc. Natl. Acad. Sci. USA 85:8603-8607 (1988)). The data is given plus/minus the standard error of the mean.
as §1

Ramos = assay: Clonogenic assay in methylcellulose; assay type: cell-based, human; settings: Ramos; for colonies formed: seven days
Method: as §4, §1

HL-60 = assay: Clonogenic assay in methylcellulose; assay type: cell-based, human; settings: for colonies formed: seven days
Method: as §4, §1

Raji = assay: Clonogenic assay in methylcellulose; assay type: cell-based, human; settings: for colonies formed: seven days
Method: as §4, §1

For Cc1occc(=O)c1[O-].Cc1occc(=O)c1[O-].[O]=[V+2] [BMLOV, Bis(maltolato)oxovanadium (IV)], the “[3H]cpm incorporation” value (BCL1; 1 μM BMLOV) was 265036 cpm, the “[3H]cpm incorporation” value (BCL1; 5 μM BMLOV) was 226714 cpm and the “[3H]cpm incorporation” value (BCL1; 10 μM BMLOV) was 55396 cpm. The “[3H]cpm incorporation” value (BCL1; 25 μM BMLOV) was 195 cpm, the “sensitivity of proliferation to BMLOV, in words” value (BCL1; 25 μM, 5 or 7 days) was “highly sensitive” and the “DNA fragmentation by TUNEL” value (Jurkat T cells) was “little labeling was observed”. The “DNA fragmentation by TUNEL” value (Ramos B cells [1]) was “extensively induced in a dose dependent manner”, the “induction of tyrosine phosphorylation” value (CEM) was “only low levels of tyrosine phosphorylation” and the viable cells [2] was 27%. For the same compound, the “proportion of cells in G2/M” value (Ramos B cells [3]; 0 to 5 μM BMLOV) was “did not change substantially”, the “proportion of cells in G1” value (Ramos B cells [3]; 5 μM BMLOV, control 34%) was 14% and the “proportion of cells in S phase” value (Ramos B cells [3]; 5 μM BMLOV, control 56%) was 77%. For the same compound, the “effect on cell cycle distribution, in words” value (Ramos B cells [3]; 16 hours, 0 to 5 μM BMLOV) was “preferentially deplete the proportion of cells in G1 while increasing the proportion in S phase”, the “percentage of inhibition of clonogenic growth” value (THP-1; 1 μM BMLOV) was 75.0% and the colonies formed (THP-1; 1 μM BMLOV) was 1613 ± 235 colonies per 10^4 cells. The “percentage of inhibition of clonogenic growth” value (THP-1; 5 μM BMLOV) was 98.0%, the colonies formed (THP-1; 5 μM BMLOV) was 127 ± 35 colonies per 10^4 cells and the “percentage of inhibition of clonogenic growth” value (THP-1; 10 μM BMLOV) was 98%. The colonies formed (THP-1; 10 μM BMLOV) was 127 ± 35 colonies per 10^4 cells, the “percentage of inhibition of clonogenic growth” value (Ramos; 1 μM BMLOV) was 95.6% and the colonies formed (Ramos; 1 μM BMLOV) was 179 ± 33 colonies per 10^4 cells. For the same compound, the “percentage of inhibition of clonogenic growth” value (Ramos; 5 μM BMLOV) was 99.8%, the colonies formed (Ramos; 5 μM BMLOV) was 7 ± 2 colonies per 10^4 cells and the “percentage of inhibition of clonogenic growth” value (Ramos; 10 μM BMLOV) was “greater than 99.9%”. For the same compound, the colonies formed (Ramos; 10 μM BMLOV) was 0 colonies per 10^4 cells, the “percentage of inhibition of clonogenic growth” value (HL-60; 1 μM BMLOV) was 99.4% and the colonies formed (HL-60; 1 μM BMLOV) was 31 ± 8 colonies per 10^4 cells. The “percentage of inhibition of clonogenic growth” value (HL-60; 5 μM BMLOV) was 99.4%, the colonies formed (HL-60; 5 μM BMLOV) was 31 ± 8 colonies per 10^4 cells and the “percentage of inhibition of clonogenic growth” value (HL-60; 10 μM BMLOV) was 99.7%. The colonies formed (HL-60; 10 μM BMLOV) was 15 ± 4 colonies per 10^4 cells, the “percentage of inhibition of clonogenic growth” value (Raji; 1 μM BMLOV) was 60.3% and the colonies formed (Raji; 1 μM BMLOV) was 1291 ± 283 colonies per 10^4 cells. For the same compound, the “percentage of inhibition of clonogenic growth” value (Raji; 5 μM BMLOV) was 99.9%, the colonies formed (Raji; 5 μM BMLOV) was 4 ± 0.6 colonies per 10^4 cells and the colonies formed (Raji; 10 μM BMLOV) was 3 ± 0.8 colonies per 10^4 cells.
